In experiment [1] the test system is human malignant glioma U87-MG and U373-MG cells. The following applies: cited from earlier work.
A further experiment deals with U373-MG cells. The following applies: cited from earlier work.
Experiment [2] deals with constitutively activated STAT3 in Colo357-FG cells. Briefly: Western blot of phosphorylated STAT3 (Tyr705) and total STAT3 in Colo357-FG cells (FIG. 1). Type of experiment: cell-based, human. An excerpt: Cultured pancreatic cancer cells treated with different times and concentrations of WP compounds or DMSO (solvent) were lysed in lysis buffer and equal amounts of protein extracts were fractionated by sodium dodecyl sulfate polyacrylamide gel electrophoresis and transferred to Hybond-P membranes. Membranes were immuno-blotted using phospho-specific STAT3, total STAT3, Bcl-xL, survivin, PARP, caspase-8 and GADPH antibodies. The primary antibodies were visualized with goat anti-rabbit or goat anti-mouse peroxidase-conjugated antibodies using an enhanced […] (ECF) system and a Molecular Dynamics Storm PhosphorImager.
Background: A western blot detects proteins with antibodies after separation by electrophoresis.

In experiment [3] the test system is subcutaneous malignant glioma xenografts. As to conditions: cited from earlier work.
The test system of the next experiment is U87-MG cells. As to conditions: cited from earlier work.
The next experiment relates to STAT3. Briefly: Inhibition of STAT3 phosphorylation, WP1193 compared with WP1066 (FIG. 34). It counts as cell-based.

Data on 2 molecules can be found in patent US8779151B2, “Orally bioavailable caffeic acid related anticancer drugs” (The Board of Regents of the University of Texas System, priority 2006, dated 2014).

In the case of `C[C@H](NC(=O)/C(C#N)=C/c1cccc(Br)n1)c1ccccc1` [WP1066], the “Bax, c-myc, Bcl-XL, Mcl-1 and apoptosis” value in experiment [1] was “activated Bax, suppressed the expression of c-myc, Bcl-XL and Mcl-1, and induced apoptosis”. For the same molecule, the IC50 – broadly, the concentration that inhibits the measured activity by half – in the experiment with U373-MG cells is 3.7 µM; with U87-MG cells, 5.6 µM. In addition, the “increase in potency over that of AG490” value in the experiment on U373-MG cells (versus AG490) was “eightfold”; in the experiment on U87-MG cells (versus AG490), 18 fold. Moreover, the “inhibition of constitutively activated STAT3 (phospho-Tyr705 versus total STAT3)” value in experiment [2] is on record as “Inhibition of constitutively activated STAT3”. For the same molecule, the “phosphorylated STAT3 levels in excised tumors (immunohistochemical analysis)” value in experiment [3] (3 weeks after the final WP1066 injection, versus control group) was “remained inhibited”. In experiment [3] (mice, systemic intraperitoneal administration, 30-day follow-up period), the “growth of subcutaneous malignant glioma xenografts” value is “significantly (P<0.001) inhibited the growth”.
With `N#C/C(=C\c1cccc(Br)n1)C(=O)N[C@H](c1ccccc1)C1CC1` [WP1193, (E)-3-(6-bromopyridin-2-yl)-2-cyano-N-((S)-cyclopropyl(phenyl)methyl)acrylamide], the “inhibition of constitutively activated STAT3 (phospho-Tyr705 versus total STAT3)” value in experiment [2] was “Inhibition of constitutively activated STAT3”. Besides, in the experiment with STAT3, the “inhibition of STAT3 phosphorylation relative to WP1066” value is recorded as “more potently than WP1066”.
